According to BindingDB's records for doi:10.1021/jm101104z (University of Ljubljana, 2011):

Key:
[1] = molecular target: 17beta-hydroxysteroid dehydrogenase type 1 (Homo sapiens); assay: Displacement of [3H]estrone human recombinant 17beta-HSD1 expressed in Escherichia coli BL21 (DE3)-RIL by scintillation counting in presence of bacterial homogenate
[2] = molecular target: 17beta-hydroxysteroid dehydrogenase type 1 (Homo sapiens); assay: Displacement of [3H]estrone human recombinant 17beta-HSD1 expressed in Escherichia coli BL21 (DE3)-RIL by competitive inhibition assay in presence of bacterial homogenate
[3] = molecular target: 17beta-hydroxysteroid dehydrogenase type 1 (Homo sapiens); assay: Inhibition of 17beta-HSD1

Row | SMILES | IC50 [1] [nM] | Ki [2] [nM] | IC50 [3] [nM]
1 | CC(=O)c1cc2ccc(OS(=O)(=O)C(F)(F)F)cc2oc1=O [3-Acetyl-2-oxo-2H-chromen-7-yl trifluoromethanesulfonate] | 360 | 173 | 
2 | CC(=O)c1cc2ccc(-c3ccc(O)cc3)cc2oc1=O [3-Acetyl-7-(4-hydroxyphenyl)-2H-chromen-2-one] | 270 | 143 | 
3 | COc1ccc(-c2ccc3cc(C(C)=O)c(=O)oc3c2)cc1 [3-Acetyl-7-(4-methoxyphenyl)-2H-chromen-2-one] | 1140 | 585 | 
4 | CC(=O)c1cc2ccc(-c3ccc(C)cc3)cc2oc1=O [3-Acetyl-7-para-tolyl-2H-chromen-2-one] | 1240 | 585 | 
5 | COc1cc(-c2nc3sc4c(O)cccc4c3c(=O)n2Cc2ccccc2)c(Br)c(OC)c1OC [3-Benzyl-2-(2-bromo-3,4,5-trimethoxy-phenyl)-8-hydroxy-3H-benzo[4,5]thieno[2,3-d]pyrimidin-4-one] |  |  | 5
